Experimental findings from ChEMBL document CHEMBL1201862, “PubChem BioAssay data set” (2004) are described below.

Each structure is given as a SMILES string. The source made the active and inactive calls.

The target in assay [1] is T1, Zinc finger protein mex-5 (Caenorhabditis elegans, UniProt Q9XUB2).
T1 sequence (Q9XUB2 whole entry): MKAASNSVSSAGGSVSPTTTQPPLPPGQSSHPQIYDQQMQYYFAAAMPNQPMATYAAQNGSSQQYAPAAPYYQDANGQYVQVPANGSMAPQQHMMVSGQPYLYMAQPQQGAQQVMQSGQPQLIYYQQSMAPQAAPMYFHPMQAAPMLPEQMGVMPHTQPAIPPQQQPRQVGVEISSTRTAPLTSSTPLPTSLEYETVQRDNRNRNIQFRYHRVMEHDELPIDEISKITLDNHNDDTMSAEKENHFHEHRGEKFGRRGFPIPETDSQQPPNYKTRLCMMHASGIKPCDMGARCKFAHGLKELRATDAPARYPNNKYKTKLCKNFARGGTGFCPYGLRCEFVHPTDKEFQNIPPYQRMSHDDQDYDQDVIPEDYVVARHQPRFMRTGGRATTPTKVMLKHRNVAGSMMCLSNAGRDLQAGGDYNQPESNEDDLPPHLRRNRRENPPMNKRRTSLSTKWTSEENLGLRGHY
Put plainly: MEX-5/TCR-2 RNA interaction inhibitors, dose response, biochemical, C. elegans, fluorescence polarization (AID 1960). On the technique in general: Polarisation of emitted light reports the rotation of a fluorescent probe.

Assay [2] concerns the target T2, RNA-binding protein pos-1 (Caenorhabditis elegans, UniProt G5EF15).
T2 sequence (G5EF15 whole entry): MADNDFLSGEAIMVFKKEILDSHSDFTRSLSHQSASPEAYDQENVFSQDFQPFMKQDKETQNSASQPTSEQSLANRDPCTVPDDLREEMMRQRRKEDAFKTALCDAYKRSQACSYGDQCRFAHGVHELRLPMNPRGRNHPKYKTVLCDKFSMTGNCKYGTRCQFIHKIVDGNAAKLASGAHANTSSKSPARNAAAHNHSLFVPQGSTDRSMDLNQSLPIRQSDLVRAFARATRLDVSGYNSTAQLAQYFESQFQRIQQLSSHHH
Put plainly: inhibitors of POS-1/mex-3 RNA binding, dose response, biochemical, fluorescence polarization (AID 1964).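 Also: purified POS-1 fused to maltose binding protein made in E. coli; potency of compounds blocking POS-1 binding to fluorescent RNA.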

Assay [3] concerns the target T3, Probable nicotinate-nucleotide adenylyltransferase (Staphylococcus aureus (strain N315), UniProt P65502). In kind it is functional, Staphylococcus aureus subsp. aureus N315. The note with it: read-out: IC50_Mean.
Assay [4] deals with T3, Probable nicotinate-nucleotide adenylyltransferase. Format: functional, Staphylococcus aureus subsp. aureus N315.
A further assay has as its target Cytochrome P450 2C19 (Homo sapiens, UniProt P33261). Nature of the assay: Cytochrome panel assay with activity outcomes. Panel member name: p450-cyp2c19 Compounds with AC50 equal or less than 10 uM are considered active. The note with it: read-out: AC50. Format: functional.
Another assay concerns the target T4, Protein RecA (Mycobacterium tuberculosis, UniProt P9WHJ3).
T4 sequence (P9WHJ3 whole entry): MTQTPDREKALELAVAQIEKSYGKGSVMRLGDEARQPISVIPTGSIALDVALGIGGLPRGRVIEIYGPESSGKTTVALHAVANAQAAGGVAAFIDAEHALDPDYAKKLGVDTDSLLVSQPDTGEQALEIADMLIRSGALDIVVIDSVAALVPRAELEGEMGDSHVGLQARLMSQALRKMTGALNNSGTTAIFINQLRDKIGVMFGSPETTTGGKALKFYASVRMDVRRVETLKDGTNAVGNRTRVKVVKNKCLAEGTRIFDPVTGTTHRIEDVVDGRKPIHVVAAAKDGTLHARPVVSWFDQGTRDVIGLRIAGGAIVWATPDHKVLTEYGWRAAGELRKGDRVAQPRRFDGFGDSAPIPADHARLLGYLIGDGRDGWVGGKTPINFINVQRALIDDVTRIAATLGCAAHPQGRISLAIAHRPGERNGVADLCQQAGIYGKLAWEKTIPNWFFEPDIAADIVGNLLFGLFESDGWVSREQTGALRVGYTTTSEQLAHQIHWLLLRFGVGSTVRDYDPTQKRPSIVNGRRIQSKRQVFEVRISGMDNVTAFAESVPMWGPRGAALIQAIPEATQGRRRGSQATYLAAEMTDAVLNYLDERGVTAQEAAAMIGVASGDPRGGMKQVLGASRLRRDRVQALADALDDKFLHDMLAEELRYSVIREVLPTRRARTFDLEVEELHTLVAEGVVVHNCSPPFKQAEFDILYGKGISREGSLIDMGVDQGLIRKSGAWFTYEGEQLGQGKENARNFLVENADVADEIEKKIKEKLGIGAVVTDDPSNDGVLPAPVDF
Nature of the assay: Fluorescence Cell-Free Homogeneous Dose Retest to Identify Inhibitors of RecA-Intein Splicing Activity. [Related pubchem assays (depositor defined):AID2097, AID2223, AID489010, AID492950]. In kind it is functional.

For assay [5], the target named is T5, Replicative DNA helicase DnaB (Mycobacterium tuberculosis, UniProt P9WMR3).
T5 sequence (P9WMR3 whole entry): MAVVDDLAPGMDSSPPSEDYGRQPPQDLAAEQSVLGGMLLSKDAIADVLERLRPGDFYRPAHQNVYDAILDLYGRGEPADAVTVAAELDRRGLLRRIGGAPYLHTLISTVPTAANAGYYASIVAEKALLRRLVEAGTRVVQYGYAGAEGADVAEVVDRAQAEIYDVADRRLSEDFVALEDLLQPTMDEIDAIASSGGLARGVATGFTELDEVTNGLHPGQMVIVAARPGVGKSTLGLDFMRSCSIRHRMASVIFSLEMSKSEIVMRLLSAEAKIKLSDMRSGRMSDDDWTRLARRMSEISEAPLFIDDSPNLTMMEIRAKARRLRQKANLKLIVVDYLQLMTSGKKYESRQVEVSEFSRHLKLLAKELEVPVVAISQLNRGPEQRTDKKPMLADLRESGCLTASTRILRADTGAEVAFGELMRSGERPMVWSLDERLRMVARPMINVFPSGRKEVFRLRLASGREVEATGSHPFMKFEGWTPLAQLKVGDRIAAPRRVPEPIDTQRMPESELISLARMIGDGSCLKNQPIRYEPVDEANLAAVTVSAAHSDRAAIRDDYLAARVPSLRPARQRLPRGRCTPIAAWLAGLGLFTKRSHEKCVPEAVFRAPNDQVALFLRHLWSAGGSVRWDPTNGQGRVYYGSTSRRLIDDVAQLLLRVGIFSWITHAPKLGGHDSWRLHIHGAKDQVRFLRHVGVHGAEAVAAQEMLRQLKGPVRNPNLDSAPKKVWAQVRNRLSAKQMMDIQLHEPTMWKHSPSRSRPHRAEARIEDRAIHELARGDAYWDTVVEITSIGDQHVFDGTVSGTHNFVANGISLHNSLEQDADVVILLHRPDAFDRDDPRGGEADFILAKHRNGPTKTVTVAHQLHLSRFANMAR
Put plainly: DnaB intein splicing inhibitors, dose response, biochemical, cell-free fluorescence (AID 449749). In kind it is functional.

The target in a further assay is Kallikrein-7 (Homo sapiens, UniProt P49862). Nature of the assay: Fluorescence Intensity-based biochemical primary high throughput dose response assay to identify activators of kallikrein-7 (K7) zymogen.
Sequence of Kallikrein-7 (P49862 whole entry): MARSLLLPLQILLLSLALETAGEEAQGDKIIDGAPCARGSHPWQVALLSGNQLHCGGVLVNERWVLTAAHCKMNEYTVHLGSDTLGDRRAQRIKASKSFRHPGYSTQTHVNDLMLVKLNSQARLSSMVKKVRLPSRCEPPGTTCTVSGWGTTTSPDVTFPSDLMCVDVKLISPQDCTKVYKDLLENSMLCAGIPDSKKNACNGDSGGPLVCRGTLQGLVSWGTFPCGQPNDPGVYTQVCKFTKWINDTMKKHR
Assay [6] is described as follows: HepG2 cell cytotoxicity, dose response, cytotoxicity control for Shn3 inhibitor project, CellTiter-Glo, cherry-picked (AID 624134). Format: functional, cell-based.
The nature of assay [7]: inhibitors of intracellular T. cruzi replication, confirmation, NIH3T3 host cells, beta-gal luminescence (AID 2044).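 Also: intracellular parasites grown in NIH/3T3 mouse fibroblasts as host cells; luminescent beta-galactosidase reporter signal from transgenic T. cruzi replicating inside host cells; inhibitors lower the luminescence signal.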 In kind it is functional, cell-based.
Assay [8] concerns the target T6, COUP transcription factor 2 (Homo sapiens, UniProt P24468).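 Also: HEK293 cells transiently cotransfected with COUP-TFII expression vector and reporter; luciferase reporter luminescence driven by COUP-TFII from the pX2-168 reporter plasmid.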
T6 sequence (P24468 whole entry): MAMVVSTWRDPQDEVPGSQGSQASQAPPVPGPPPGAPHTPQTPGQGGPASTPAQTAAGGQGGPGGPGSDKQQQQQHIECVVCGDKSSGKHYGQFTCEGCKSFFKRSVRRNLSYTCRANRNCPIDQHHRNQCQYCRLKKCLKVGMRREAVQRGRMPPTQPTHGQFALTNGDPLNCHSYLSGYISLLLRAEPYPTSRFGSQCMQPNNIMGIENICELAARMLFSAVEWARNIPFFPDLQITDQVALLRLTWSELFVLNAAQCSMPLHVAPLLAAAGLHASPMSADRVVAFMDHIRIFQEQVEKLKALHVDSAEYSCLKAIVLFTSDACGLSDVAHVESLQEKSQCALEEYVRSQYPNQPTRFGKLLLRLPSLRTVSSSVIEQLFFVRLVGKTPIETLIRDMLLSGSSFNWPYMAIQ
Put plainly: Luminescence-based cell-based high throughput dose response assay to identify inhibitors of COUP-TFII (NR2F2). In kind it is functional.

Assay [9] is described as follows: cytotoxicity in HEK-293T cells, dose response, cytotoxicity control for TCR NF-kB inhibitor project, luminescence, T-cell screen hits (AID 489026).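 Also: cells exposed to compound about 14 hours before the viability readout.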 In kind it is functional, cell-based.
The nature of assay [10]: control 3'UTR Renilla luciferase suppression, dose response, counter-screen for Shn3 inhibitor project, cell-based, Clone20-Shn3RL, cherry-picked (AID 624133). In kind it is functional. In general terms: Counterscreens check selectivity or assay interference.
Assay [11] is described as follows: Shn3 3'UTR reporter inhibitors, dose response, cell-based, Clone20 osteoblasts, firefly luciferase, cherry-picked (AID 624132).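 Also: firefly luciferase luminescence from reporter carrying the Shn3 3'UTR in osteoblasts.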 Format: functional.
Assay [12] is described as follows: cytotoxicity toward NIH3T3 fibroblasts, dose response, counter-screen, cell-based, ATP luminescence, mouse fibroblasts (AID 2010).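 Also: cells exposed to compound for about 90 hours before reading.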 Format: functional.
The test system of the next assay is INS1. Nature of the assay: beta cell apoptosis inhibitors, cytokine rescue, dose response, luminescence, retest (AID 449756).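 Also: cell death triggered by IL-1 beta plus TNF-alpha plus IFN-gamma mixture; protective hits raise ATP signal compared with cytokine alone wells.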 The following applies: Rattus norvegicus. Format: functional, cell-based.
Assay [13] is described as follows: HEK293T cytotoxicity, dose response, cytotoxicity control for miR-122 modulator project, cell-based, inhibitor set, cherry-pick, set 2 (AID 720697). In kind it is functional.
A short description of assay [14]: miR-122 activators in hepatoma reporter cells, dose response, cell-based, Huh7 psiCHECK-miR122, Renilla luciferase, cherry-picked (AID 651956).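 Also: huh7 hepatoma cells stably carrying a psiCHECK-2 miR-122 sensor plasmid; renilla luciferase signal reporting endogenous miR-122 activity after 48 h compound exposure.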 Format: functional.
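For IC50 Mean in this document: confirmatory dose-response retesting of NadD inhibitor hits first found in an ultra-high-throughput screen.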

T3 sequence (P65502 whole entry): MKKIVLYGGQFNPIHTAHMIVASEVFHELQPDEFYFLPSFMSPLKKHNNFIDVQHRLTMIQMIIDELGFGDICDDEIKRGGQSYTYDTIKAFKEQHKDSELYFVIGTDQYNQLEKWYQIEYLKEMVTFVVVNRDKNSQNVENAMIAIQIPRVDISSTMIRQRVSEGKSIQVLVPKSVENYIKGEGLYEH
Sequence of Cytochrome P450 2C19 (P33261 whole entry): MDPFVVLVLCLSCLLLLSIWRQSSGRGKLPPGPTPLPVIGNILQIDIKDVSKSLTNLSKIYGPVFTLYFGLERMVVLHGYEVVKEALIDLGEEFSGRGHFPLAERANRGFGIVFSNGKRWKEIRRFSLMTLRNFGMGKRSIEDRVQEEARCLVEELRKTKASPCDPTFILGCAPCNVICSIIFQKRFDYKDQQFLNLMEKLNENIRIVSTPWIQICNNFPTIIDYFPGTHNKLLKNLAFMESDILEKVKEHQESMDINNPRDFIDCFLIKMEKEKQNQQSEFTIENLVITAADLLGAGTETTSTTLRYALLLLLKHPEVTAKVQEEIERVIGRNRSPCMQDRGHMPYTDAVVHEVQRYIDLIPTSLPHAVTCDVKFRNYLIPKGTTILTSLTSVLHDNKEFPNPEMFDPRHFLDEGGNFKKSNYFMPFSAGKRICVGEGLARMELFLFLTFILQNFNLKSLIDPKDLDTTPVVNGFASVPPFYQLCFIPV

The EC50 is the concentration that produces a half-maximal response. `CCCCC1=CC2=CC(=O)C(C)(OC(=O)CC)C(=O)C2=CO1` (stereo not drawn): the EC50 in [1] is 21.6 µM (active); in assay [2] it was 27.8 µM (active). The IC50 in [3] is 24 µM (active); in assay [4], 9.32 µM (active).
Usually AC50 stands for the concentration at which the activity in the assay is half-maximal. Regarding `Cc1cc(C)cc(Oc2coc3cc(OC(=O)c4cccs4)ccc3c2=O)c1`, the AC50 at Cytochrome P450 2C19 was 2.82 µM (inconclusive); in assay [5] it was 21.2 µM (active). In addition, the EC50 at Protein RecA was 18.8 µM (active); at Kallikrein-7, 66.8 µM (inactive).
On to `N#C/C(=C/c1ccc(-c2ccc(S(N)(=O)=O)cc2)o1)C(=O)Nc1ccccc1`, for which the EC50 at Kallikrein-7 is 9.54 µM (active).
On to `COc1ccc(-c2csc(NC(=O)C3CCN(c4ncnc5sc(C)c(C)c45)CC3)n2)cc1OC`, for which the AC50 in [6] is 1.86 µM (active); in [10] it was 0.857 µM (active); in assay [11], 1.42 µM (active); with INS1 it was 3.6 µM (active). Further, the EC50 was 1.37 µM (active) in [7] and > 60 µM (not active) in [12]. The IC50 in [8] is 3.82 µM (active); in assay [9] it was > 80 µM (inactive).
`CCOc1ccc2nc(NS(=O)(=O)c3cccs3)sc2c1`: the AC50 was 1.99 µM (active) in [13] and 6.98 µM (active) in assay [14].
As to `COC(=O)CCCC1=CC2=CC(=O)C(C)(OC(=O)CCc3ccccc3)C(=O)C2=CO1` (stereo not drawn), the values for the EC50 in assay [1] and in [2] were 26.7 µM (active) and 30.9 µM (active), respectively. Also, the values for the IC50 in assay [3] and in [4] were 14.2 µM (active) and 5.76 µM (active), respectively.
